Laboratory results as given in ChEMBL document CHEMBL1201862, “PubChem BioAssay data set” (2004).
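Protocol summary: plate cells (96-well), add compound at 5 concentrations, incubate 48 h, interpolate endpoints linearly. The concentration for 50% growth inhibition is given as GI50.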 Calls of active or inactive are those of the source. Rule as the data show it: active = GI50 up to about 1.1 µM and inactive = higher.

How the values were obtained:
Test in all cases: NCI tumour cell line growth inhibition, 48 h
786-0 = tested on: 786-0
EKVX = tested on: EKVX
HCC 2998 = tested on: HCC 2998
HCT-15 = tested on: HCT-15
HOP-92 = tested on: HOP-92
HT-29 = tested on: HT-29
K562 = tested on: K562
LOX IMVI = tested on: LOX IMVI
MCF7 = tested on: MCF7
MDA-N = tested on: MDA-N
Malme-3M = tested on: Malme-3M
NCI-H226 = tested on: NCI-H226
NCI-H522 = tested on: NCI-H522
OVCAR-3 = tested on: OVCAR-3
RPMI-8226 = tested on: RPMI-8226
SF-295 = tested on: SF-295
SK-MEL-2 = tested on: SK-MEL-2
TK-10 = tested on: TK-10
UACC-257 = tested on: UACC-257

| SMILES | GI50 (786-0) | GI50 (EKVX) | GI50 (HCC 2998) | GI50 (HCT-15) | GI50 (HOP-92) | GI50 (HT-29) | GI50 (K562) | GI50 (LOX IMVI) | GI50 (MCF7) | GI50 (MDA-N) | GI50 (Malme-3M) | GI50 (NCI-H226) | GI50 (NCI-H522) | GI50 (OVCAR-3) | GI50 (RPMI-8226) | GI50 (SF-295) | GI50 (SK-MEL-2) | GI50 (TK-10) | GI50 (UACC-257) |
| --- | --- | --- | --- | --- | --- | --- | --- | --- | --- | --- | --- | --- | --- | --- | --- | --- | --- | --- | --- |
| CN(CC(=O)N1CC(CCl)c2ccc([N+](=O)[O-])cc21)CC(=O)N1CC(CCl)c2ccc([N+](=O)[O-])cc21 (centres undefined) | > 100 µM (inactive) | > 100 µM (inactive) | > 100 µM (inactive) | > 100 µM | > 100 µM (inactive) | > 100 µM (inactive) | > 100 µM (inactive) | > 100 µM (inactive) | > 100 µM (inactive) | > 100 µM (inactive) | > 100 µM (inactive) | > 100 µM (inactive) | 7.73 µM (inactive) | 74.1 µM (inactive) | 95.9 µM (inactive) | > 100 µM (inactive) | 97.9 µM (inactive) | > 100 µM (inactive) | > 100 µM (inactive) |
| COc1cc(/C=C2/SC(c3ccccc3)N(c3cccc(Cl)c3)C2=O)cc(OC)c1OC (centres undefined) | 16.8 µM (inactive) | 41.3 µM (inactive) | 36.3 µM (inactive) | 20.7 µM | 23.6 µM (inactive) | 25.6 µM (inactive) | 13.5 µM (inactive) | 12.1 µM (inactive) | 24 µM (inactive) | 16.3 µM (inactive) | 24.6 µM (inactive) | 42.7 µM (inactive) | 11.5 µM (inactive) | 40.1 µM (inactive) | 16.2 µM (inactive) | 8.22 µM (inactive) | 59.3 µM (inactive) | 33.7 µM (inactive) | 40.1 µM (inactive) |
| CC(=O)NC1C(OCc2ccccc2)OC(CO)C(O)C1OCC(=O)NC(C)C(=O)NC(CCC(=O)NCCCCCNc1c2ccccc2nc2cccc([N+](=O)[O-])c12)C(N)=O (centres undefined) | < 0.0001 µM (active) | 0.00197 µM (active) | < 0.0001 µM (active) | < 0.0001 µM | < 0.0001 µM (active) | < 0.0001 µM (active) | < 0.0001 µM (active) | 0.00169 µM (active) | < 0.0001 µM (active) | < 0.01 µM (active) | < 0.0001 µM (active) | 0.000202 µM (active) | < 0.0001 µM (active) | < 0.01 µM (active) | < 0.0001 µM (active) | < 0.0001 µM (active) | < 0.0001 µM (active) | 0.023 µM (active) | < 0.0001 µM (active) |
| c1ccc(-c2nnc(-c3ccccn3)c3c2C[C@@H]2C[C@@H]4Cc5c(-c6ccccn6)nnc(-c6ccccn6)c5[C@@H]4[C@H]32)nc1 | 33.7 µM (inactive) | 18 µM (inactive) | 39.9 µM (inactive) | 38.8 µM | 60.4 µM (inactive) | 44.9 µM (inactive) | 18.3 µM (inactive) | 55.5 µM (inactive) | 66.1 µM (inactive) | 46.6 µM (inactive) | 75.7 µM (inactive) | 24.2 µM (inactive) | 96.6 µM (inactive) | 85.9 µM (inactive) | 44.7 µM (inactive) | 58.9 µM (inactive) | 51.1 µM (inactive) | > 100 µM (inactive) | 66.7 µM (inactive) |
| Cn1c(=O)c2c(no[n+]2[O-])n(C)c1=O | 23.8 µM (inactive) | 28.4 µM (inactive) | > 100 µM (inactive) | > 100 µM | 19.1 µM (inactive) | 31.2 µM (inactive) | > 100 µM (inactive) | > 100 µM (inactive) | > 100 µM (inactive) | 22.4 µM (inactive) | 18.5 µM (inactive) | 18.2 µM (inactive) | 16.1 µM (inactive) | > 100 µM (inactive) | > 100 µM (inactive) | 52.4 µM (inactive) | 45 µM (inactive) | 18.9 µM (inactive) | 36.9 µM (inactive) |
| NC1(c2cc3ccccc3s2)CCCC1 | 54.2 µM (inactive) | > 100 µM (inactive) | 21.2 µM (inactive) | 65.2 µM | 51.6 µM (inactive) | 32.9 µM (inactive) | 25.2 µM (inactive) | 36.5 µM (inactive) | 57.8 µM (inactive) | 48.9 µM (inactive) | 36.9 µM (inactive) | > 100 µM (inactive) | 92.5 µM (inactive) | > 100 µM (inactive) | 17.7 µM (inactive) | 71.3 µM (inactive) | 58.9 µM (inactive) | 34.1 µM (inactive) | 31 µM (inactive) |
| N#Cc1c(C#N)c(SSc2c(C#N)c(C#N)c(N)n2-c2ccc(F)cc2)n(-c2ccc(F)cc2)c1N | 1.79 µM (inactive) | 2.2 µM (inactive) | 21.8 µM (inactive) | 2.03 µM | 2.96 µM (inactive) | 20.5 µM (inactive) | 1.76 µM (inactive) | 26.4 µM (inactive) | 2.9 µM (inactive) | 3.67 µM (inactive) | 1.87 µM (inactive) | 20.8 µM (inactive) | 1.7 µM (inactive) | 2.66 µM (inactive) | 2.37 µM (inactive) | 17.9 µM (inactive) | 22.4 µM (inactive) | 3.9 µM (inactive) | 5.93 µM (inactive) |
| COc1ccc([C@H]2CC(=O)C[C@H](c3ccc(OC)cc3OC)C23C(=O)c2ccccc2C3=O)c(OC)c1 | > 100 µM (inactive) | > 100 µM (inactive) | > 100 µM (inactive) | > 100 µM | 27.3 µM (inactive) | > 100 µM (inactive) | > 100 µM (inactive) | 65 µM (inactive) | > 100 µM (inactive) | > 100 µM (inactive) | > 100 µM (inactive) | > 100 µM (inactive) | > 100 µM (inactive) | > 100 µM (inactive) | > 100 µM (inactive) | > 100 µM (inactive) | > 100 µM (inactive) | > 100 µM (inactive) | > 100 µM (inactive) |
| COC(=O)c1ccc(C)cc1C1CN=NC12Cc1c(C)cccc1C2=O (centres undefined) | 52.1 µM (inactive) | > 100 µM (inactive) | > 100 µM (inactive) | 28.6 µM | 38.6 µM (inactive) | 31.1 µM (inactive) | 47.5 µM (inactive) | 24.3 µM (inactive) | 0.394 µM (active) | 37.5 µM (inactive) | 58.2 µM (inactive) | 47 µM (inactive) | 24.2 µM (inactive) | 27 µM (inactive) | 36.6 µM (inactive) | 50.4 µM (inactive) | 43.5 µM (inactive) | 99.3 µM (inactive) | 49.7 µM (inactive) |
| O=S(=O)(O)CCSSCCS(=O)(=O)O | > 1000 µM (inactive) | > 1000 µM (inactive) | > 1000 µM (inactive) | > 1000 µM | > 1000 µM (inactive) | > 1000 µM (inactive) | > 1000 µM (inactive) | > 1000 µM (inactive) | > 1000 µM (inactive) | > 1000 µM (inactive) | > 1000 µM (inactive) | > 1000 µM (inactive) | > 1000 µM (inactive) | > 1000 µM (inactive) | > 1000 µM (inactive) | > 1000 µM (inactive) | > 1000 µM (inactive) | > 1000 µM (inactive) | > 1000 µM (inactive) |
| O=S(=O)(N/C(=N\O)Nc1ccc(Cl)cc1)c1cc(S(=O)(=O)c2ccccc2)cs1 | 15.7 µM (inactive) | 16.3 µM (inactive) | 13.4 µM (inactive) | 18.8 µM | 9.62 µM (inactive) | 21 µM (inactive) | 10.4 µM (inactive) | 15.5 µM (inactive) | 17.3 µM (inactive) | 15.8 µM (inactive) | 14.2 µM (inactive) | 28.6 µM (inactive) | 10.6 µM (inactive) | 13.5 µM (inactive) | 7.87 µM (inactive) | 15.8 µM (inactive) | 18.7 µM (inactive) | 19.2 µM (inactive) | 15.9 µM (inactive) |
